Molecular target: mouse centaurin-β2 PH domain (residues 266 to 390), GST fusion (Mus musculus, UniProt Q6ZQK5)
Assay: Protein-lipid overlay
Assay type: binding
Settings: FIG. 2
Method: FIG. 2. Phosphoinositide binding properties of the novel PH domains. The ability of the indicated GST fusion proteins to bind a variety of phosphoinositides was analysed using a protein-lipid overlay. Serial dilutions of the indicated phosphoinositides (100 pmol, 50 pmol, 25 pmol, 12.5 pmol, 6.3 pmol, 3.1 pmol and 1.6 pmol) were spotted onto a nitrocellulose membranes which were then incubated with the purified GST fusion proteins. The membranes were washed and the GST-fusion proteins bound to the membrane by virtue of their interaction with lipid were detected using a GST antibody. A representative of at least 3 separate experiments carried out is shown.
Cloning of PH domains and preparation of expression constructs. All the human and mouse EST's were obtained from the I.M.A.G.E. Consortium and sequenced. The plant EST (accession number T04439) encoding a full length clone of AtPH1 was obtained from the Arabidopsis Biological Research. Centre (Ohio University). The sequence of each EST was verified and the full length PH domain of each EST was amplified by PCR using the Hi-fidelity PCR system with primers designed to incorporate a Kozak site, an initiating ATG codon followed by a myc epitope tag and a stop codon after the PH domain. […]

Chain of mouse centaurin-β2 PH domain (residues 266 to 390), GST fusion (Q6ZQK5 266-390): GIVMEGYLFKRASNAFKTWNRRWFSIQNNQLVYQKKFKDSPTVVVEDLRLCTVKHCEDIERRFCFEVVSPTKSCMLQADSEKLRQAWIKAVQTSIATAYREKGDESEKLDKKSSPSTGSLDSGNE

## CCCCCCCCCCCCCCCC(=O)OC[C@H](COP(=O)(O)O[C@@H]1[C@H](O)[C@H](OP(=O)(O)O)[C@@H](O)[C@H](OP(=O)(O)O)[C@H]1O)OC(=O)CCCCCCCCCCCCCCC [PtdIns(3,5)P2]
  phosphoinositide binding: moderate affinity
